Data: ChEMBL document CHEMBL4823278, “Metal binding 6-arylthio-3-hydroxypyrimidine-2,4-diones inhibited human cytomegalovirus by targeting the pUL89 endonuclease of the terminase complex” (Eur J Med Chem, 2021)

Legend:
[1] = biological target: T1, Tripartite terminase subunit 3 (Human betaherpesvirus 5) (UniProt P16732); assay: Inhibition of human cytomegalovirus pUL89 endonuclease activity using 60 bp dsDNA substrate at 20 uM incubated for 30 mins by ELISA-based biochemical assay relative to control
T1 sequence (whole entry): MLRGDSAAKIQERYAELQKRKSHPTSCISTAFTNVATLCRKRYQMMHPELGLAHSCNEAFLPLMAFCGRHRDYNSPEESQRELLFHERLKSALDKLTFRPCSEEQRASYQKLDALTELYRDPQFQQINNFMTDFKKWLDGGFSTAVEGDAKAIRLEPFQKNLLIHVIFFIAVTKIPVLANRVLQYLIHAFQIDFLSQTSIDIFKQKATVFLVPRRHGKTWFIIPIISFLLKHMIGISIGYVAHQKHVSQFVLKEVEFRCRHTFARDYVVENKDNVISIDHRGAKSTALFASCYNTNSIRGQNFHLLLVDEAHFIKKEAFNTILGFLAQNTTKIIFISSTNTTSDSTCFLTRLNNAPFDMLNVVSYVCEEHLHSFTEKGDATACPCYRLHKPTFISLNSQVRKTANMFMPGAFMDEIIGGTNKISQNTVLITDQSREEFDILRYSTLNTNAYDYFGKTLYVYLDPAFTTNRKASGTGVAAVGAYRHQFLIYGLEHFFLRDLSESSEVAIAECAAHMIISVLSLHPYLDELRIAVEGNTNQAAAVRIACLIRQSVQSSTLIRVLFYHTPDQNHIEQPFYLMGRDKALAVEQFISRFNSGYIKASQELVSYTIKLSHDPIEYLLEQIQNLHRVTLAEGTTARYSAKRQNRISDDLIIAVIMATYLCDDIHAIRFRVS

[2] = tested on: Human betaherpesvirus 5; assay type: functional; conditions: Human betaherpesvirus 5, HEL 299, time 168 hrs
[3] = (§1) Cytotoxicity against human HEL 299 cells assessed as cell viability at 10 uM incubated for 168 hrs by MTS-based tetrazolium reduction assay relative to control; conditions: HEL 299 cells, read-out: Activity
[4] = Apparent permeability of the compound incubated for 5 hrs by LC-MS/MS analysis based PAMPA method; assay type: ADME; conditions: for Papp: pampa, 5 h
[5] = biological target: T2, Tripartite terminase subunit 3 (Human betaherpesvirus 5, UniProt P16732)
T2 sequence (P16732 whole entry): T1 sequence (whole entry)
Description: Inhibition of human cytomegalovirus pUL89 endonuclease activity using 60 bp dsDNA substrate incubated for 30 mins by ELISA-based biochemical assay

[6] = biological target: T1, Tripartite terminase subunit 3 (Human betaherpesvirus 5); conditions: dose 20.0 µM
[7] = tested on: Human betaherpesvirus 5; assay type: functional, cell-based; conditions: Human betaherpesvirus 5, HEL 299, 168 h
[8] = tested on: HEL 299; conditions: human, hel 299, 168 h
[9] = tested on: HEL 299; assay: as §1; conditions: hel 299, 168 h, 10 µM

| SMILES | inhibition [1] [%] | inhibition at 10 µM [2] [%] | viability at 168 h, 10 µM [3] [%] | other results |
| --- | --- | --- | --- | --- |
| COc1cccc(Sc2cc(=O)n(O)c(=O)[nH]2)c1 | 92 | -13 | 114 | Papp [4]: 0.21 10^-6 cm/s; IC50 [5]: 1.9 µM; ΔTm [6]: 1.8 °C |
| CCn1c(Sc2cccc(F)c2)cc(=O)n(O)c1=O | 34 | 12 | 126 | Papp [4]: 3.4 10^-6 cm/s; IC50 [5]: 23 µM; ΔTm [6]: 0.86 °C |
| O=C(O)c1cn(Cc2ccc(Cl)c(F)c2)cc(O)c1=O | – | – | – | ΔTm [6]: 2.4 °C |
| Cn1c(Sc2ccc(F)cc2)cc(=O)n(O)c1=O | 90 | 0 | 117 | Papp [4]: 3 10^-6 cm/s; IC50 [5]: 12 µM; ΔTm [6]: 0.86 °C |
| O=c1cc(Sc2cccc(-c3ccc(C(F)(F)F)cc3)c2)[nH]c(=O)n1O | 22 | 70 | 110 | – |
| COc1ccc(-c2ccc(Sc3cc(=O)n(O)c(=O)[nH]3)cc2)cc1 | 22 | 80 | 94 | Papp at 5 h ([4]; PAMPA): 1.1 ×10⁻⁶ cm/s; EC50 [7]: 7.2 µM; CC50 [8]: 20.3 µM |
| O=c1cc(Sc2ccccc2Br)[nH]c(=O)n1O | 21 | -14 | 101 | – |
| O=c1cc(Sc2ccc(Br)cc2)[nH]c(=O)n1O | 14 | 12 | 129 | – |
| Cc1ccc(-c2ccc(Nc3cc(=O)n(O)c(=O)n3C)cc2)cc1 | – | – | – | IC50 [5]: 3.3 µM; ΔTm [6]: -2.8 °C |
| O=c1cc(Sc2ccc(-c3ccc(F)cc3)cc2)[nH]c(=O)n1O | 19 | 79 | 99 | – |
| O=c1cc(Sc2ccc(-c3ccc(C(F)(F)F)cc3)cc2)[nH]c(=O)n1O | 12 | 84 | 107 | – |
| CCn1c(Sc2ccccc2F)cc(=O)n(O)c1=O | 75 | -0.7 | – | Activity [9]: 124% |
| Cn1c(Sc2ccc(Cl)cc2)cc(=O)n(O)c1=O | – | 35 | 132 | Papp [4]: 4.5 10^-6 cm/s |
| Cn1c(Sc2cccc(Cl)c2)cc(=O)n(O)c1=O | 37 | 74 | 117 | EC50 [7]: 4.7 µM; CC50 [8]: 23.1 µM |
| Cn1c(Sc2cccc(F)c2)cc(=O)n(O)c1=O | 37 | -3.8 | 125 | Papp [4]: 2.5 10^-6 cm/s; IC50 [5]: 24 µM; ΔTm [6]: 0.56 °C |
| Cn1c(Sc2ccc(Br)cc2)cc(=O)n(O)c1=O | – | 57 | 113 | – |
| O=c1cc(Sc2cccc(Br)c2)[nH]c(=O)n1O | 16 | -6 | 123 | – |
| Cn1c(Sc2ccccc2Br)cc(=O)n(O)c1=O | – | – | 117 | – |
| CCn1c(Sc2cccc(Br)c2)cc(=O)n(O)c1=O | 71 | 100 | 7 | – |
| O=c1cc(Sc2ccc([N+](=O)[O-])cc2)[nH]c(=O)n1O | 58 | -5.1 | 115 | Papp [4]: 0.017 10^-6 cm/s; IC50 [5]: 3.6 µM; ΔTm [6]: 2.8 °C |
| O=c1cc(Sc2ccccc2)[nH]c(=O)n1O | 30 | -16 | 108 | – |
| CCc1ccc(Sc2cc(=O)n(O)c(=O)n2C)cc1 | 67 | 21 | 121 | Papp [4]: 6.6 10^-6 cm/s; IC50 [5]: 11.8 µM; ΔTm [6]: 0.29 °C |
| CCn1c(Sc2ccc(Cl)cc2)cc(=O)n(O)c1=O | 76 | 98 | 40 | – |

| SMILES | inhibition [1] [%] | inhibition at 10 µM [2] [%] | viability at 168 h, 10 µM [3] [%] | other results |
| --- | --- | --- | --- | --- |
| Nc1nc(O)c2ncn(COC(CO)CO)c2n1 [GANCICLOVIR] | – | – | – | CC50 [8]: > 50 µM |
| O=c1cc(Sc2ccc(-c3ccc(Cl)cc3)cc2)[nH]c(=O)n1O | 11 | 82 | 102 | – |
| CCn1c(Sc2ccc(F)cc2)cc(=O)n(O)c1=O | – | 67 | 114 | Papp [4]: 4.1 10^-6 cm/s |
| Cn1c(Sc2cccc(Br)c2)cc(=O)n(O)c1=O | – | 100 | 14 | IC50 [5]: 6.5 µM; ΔTm [6]: 0.76 °C |
| COc1cccc(Sc2cc(=O)n(O)c(=O)n2C)c1 | – | 91 | 135 | Papp [4]: 2.4 10^-6 cm/s |
| O=c1cc(Sc2cccc(-c3ccc(Cl)cc3)c2)[nH]c(=O)n1O | – | 81 | 100 | – |
| O=c1cc(Sc2ccc(O)cc2)[nH]c(=O)n1O | 27 | 1 | 118 | – |
| CCn1c(Sc2cccc(Cl)c2)cc(=O)n(O)c1=O | 59 | 101 | 1.3 | Papp [4]: 5.1 10^-6 cm/s; IC50 [5]: 5.7 µM; ΔTm [6]: 0.74 °C |
| Cn1c(Sc2ccc(C(F)(F)F)cc2)cc(=O)n(O)c1=O | – | 50 | 107 | – |
| COc1cccc(-c2ccc(Sc3cc(=O)n(O)c(=O)[nH]3)cc2)c1 | 11 | 71 | 107 | – |
| O=c1cc(Sc2ccc(F)cc2)[nH]c(=O)n1O | 54 | -2.3 | 118 | – |
| Cn1c(Sc2cccc(C(F)(F)F)c2)cc(=O)n(O)c1=O | – | 68 | 99 | – |
| Cc1ccc(-c2cccc(Nc3cc(=O)n(O)c(=O)[nH]3)c2)c(C)c1 | – | – | – | IC50 [5]: 3.5 µM; ΔTm [6]: -2.2 °C |
| CCc1ccccc1Sc1cc(=O)n(O)c(=O)n1C | – | 87 | 108 | Papp [4]: 5.8 10^-6 cm/s |
| Cn1c(Sc2cccc3ccccc23)cc(=O)n(O)c1=O | – | 98 | 111 | Papp [4]: 5.1 10^-6 cm/s |
| O=c1cc(Sc2cccc(-c3cccc(C(F)(F)F)c3)c2)[nH]c(=O)n1O | 20 | 33 | 118 | – |
| CCn1c(Sc2ccc(Br)cc2)cc(=O)n(O)c1=O | 66 | 100 | 16 | – |
| CCn1c(Sc2ccccc2Br)cc(=O)n(O)c1=O | 64 | 100 | 16 | – |
| O=c1cc(Sc2ccc(C(F)(F)F)cc2)[nH]c(=O)n1O | 16 | -9 | 119 | – |
| COc1ccc(-c2cccc(Sc3cc(=O)n(O)c(=O)[nH]3)c2)cc1F | 16 | -11 | 106 | – |
| Cn1c(Sc2ccccc2)cc(=O)n(O)c1=O | 65 | 21 | 115 | – |
| O=c1cc(Sc2cccc(F)c2)[nH]c(=O)n1O | 40 | 83 | – | Activity [9]: 65% |
| O=c1cc(Sc2cccc(-c3ccc(F)cc3)c2)[nH]c(=O)n1O | 10 | 19 | 100 | – |
